Test results reported in patent publication US20230183219A1, “CONDENSED SUBSTITUTED HYDROPYRROLES AS ANTAGONISTS OF THE MUSCARINIC ACETYLCHOLINE RECEPTOR M4” (Vanderbilt University, priority 2020, published 2023).

Target: T1, Human M4 (Homo sapiens, UniProt P08173)
T1 construct: Human or rat M4 cDNA, along with the chimeric G protein Gqi5, were transfected into Chinese hamster ovary (CHO-K1) cells; expressed in transfected cells; host or cells: CHO-K1 (Chinese hamster ovary, ATCC), stably co-expressing Gqi5
T1 sequence (P08173 1-479): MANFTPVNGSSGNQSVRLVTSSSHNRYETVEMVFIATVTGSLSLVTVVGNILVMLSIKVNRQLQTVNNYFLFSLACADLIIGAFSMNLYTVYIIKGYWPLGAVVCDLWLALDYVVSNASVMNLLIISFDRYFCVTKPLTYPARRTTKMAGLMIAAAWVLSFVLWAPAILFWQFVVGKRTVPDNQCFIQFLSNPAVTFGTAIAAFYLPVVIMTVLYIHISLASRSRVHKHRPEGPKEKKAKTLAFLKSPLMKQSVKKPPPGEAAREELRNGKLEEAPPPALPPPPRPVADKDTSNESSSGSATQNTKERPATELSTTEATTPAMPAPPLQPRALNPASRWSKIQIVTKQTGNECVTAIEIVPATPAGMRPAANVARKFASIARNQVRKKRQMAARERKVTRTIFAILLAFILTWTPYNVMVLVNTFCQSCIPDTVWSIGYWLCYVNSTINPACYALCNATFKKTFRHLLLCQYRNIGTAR
Assay: mAChR M4 cell-based functional assay (calcium flux, decrease of EC80 acetylcholine response)
Details: for remaining activity at 30 µM: read-out: Human M4 Emin; for IC50: M4/Gqi5/CHO-K1 cells, decrease of response to EC80 acetylcholine
How it was run: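 CHO-K1 cells stably co-expressing M4 and chimeric Gqi5, loaded with Fluo-4 AM; calcium flux read on FDSS. Compound added at 2 s, EC20 acetylcholine at 143 s, EC80 acetylcholine at 268 s. IC50 from concentration-dependent decrease of the EC80 response, four-parameter logistic fit; 10-point 1:3 titrations.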

Compound	remaining activity at 30 µM (% ACh maximum at 30 μM)	IC50	Human M4 Emin (% ACh maximum at 30 μM)
Cc1ccc(C)c(-c2cc(C(F)(F)F)c(N[C@H]3C[C@@H]4CN(C[C@@H]5COCCO5)C[C@@H]4C3)nn2)c1 [Example 71, (3aR,5s,6aS)-2-(((R)-1,4-dioxan-2-yl)methyl)-N-(6-(2,5-dimethylphenyl)-4-(trifluoromethyl)pyridazin-3-yl)octahydro-cyclopenta[c]pyrrol-5-amine]	3%	183 nM	
Cn1cc2cc(-c3cc(C(F)(F)F)c(N[C@H]4C[C@@H]5CN(C[C@@H]6CC7CCC6O7)C[C@@H]5C4)nn3)ccc2n1 (stereo partly drawn) [Example 26, (3aR,5s,6aS)-2-(((2S)-7-oxabicyclo[2.2.1]heptan-2-yl)methyl)-N-(6-(2-methyl-2H-indazol-5-yl)-4-(trifluoromethyl)pyridazin-3-yl)octahydro-cyclopenta[c]pyrrol-5-amine]	4%	19.4 nM	
Cc1cc(CN2C[C@H]3C[C@H](Nc4ncc(-c5cc(F)ccc5Cl)cn4)C[C@H]3C2)ccc1F [Example 9, (3aR,5s,6aS)-N-(5-(2-chloro-5-fluorophenyl)pyrimidin-2-yl)-2-(4-fluoro-3-methylbenzyl)octahydro-cyclopenta[c]pyrrol-5-amine]	27%	> 10000 nM	
Cn1cc2cc(-c3cc(C#N)c(N[C@H]4C[C@@H]5CN(CC6CCCOC6)C[C@@H]5C4)nn3)ccc2n1 (single isomer, unassigned) [Example 159]		11.5 nM	10%
FC(F)(F)c1cc(N2CCOCC2)nnc1N[C@H]1C[C@@H]2CN(CC3CCOCC3)C[C@@H]2C1 [Example 143, (3aR,5s,6aS)-N-(6-morpholino-4-(trifluoromethyl)pyridazin-3-yl)-2-((tetrahydro-2H-pyran-4-yl)methyl)octahydro-cyclopenta[c]pyrrol-5-amine]	2%	35.1 nM	
N#Cc1cc(-c2cc(F)ccc2Cl)nnc1N[C@H]1C[C@@H]2CN(CC3CCOCC3)C[C@@H]2C1 [Example 145, 6-(2-chloro-5-fluorophenyl)-3-(((3aR,5s,6aS)-2-((tetrahydro-2H-pyran-4-yl)methyl)octahydro-cyclopenta[c]pyrrol-5-yl)amino)pyridazine-4-carbonitrile]	3%	1.4 nM	
Cc1ccc(F)cc1-c1cc(C#N)c(N[C@H]2C[C@@H]3CN(C[C@H]4CC5CCC4O5)C[C@@H]3C2)nn1 (stereo partly drawn) [Example 148, 3-(((3aR,5s,6aS)-2-(((2R)-7-oxabicyclo[2.2.1]heptan-2-yl)methyl)octahydro-cyclopenta[c]pyrrol-5-yl)amino)-6-(5-fluoro-2-methylphenyl)pyridazine-4-carbonitrile]	2%	1.1 nM	
FC(F)(F)c1cc(-c2ccccc2)nnc1N[C@H]1C[C@@H]2CN(CC3CCOCC3)C[C@@H]2C1 [Example 65, (3aR,5s,6aS)-N-(6-phenyl-4-(trifluoromethyl)pyridazin-3-yl)-2-((tetrahydro-2H-pyran-4-yl)methyl)octahydro-cyclopenta[c]pyrrol-5-amine]	3%	69 nM	
Cn1cc(-c2cc(C(F)(F)F)c(N[C@H]3C[C@@H]4CN(CC5CCOCC5)C[C@@H]4C3)nn2)cn1 [Example 66, (3aR,5s,6aS)-N-(6-(1-methyl-1H-pyrazol-4-yl)-4-(trifluoro-methyl)pyridazin-3-yl)-2-((tetrahydro-2H-pyran-4-yl)methyl)octahydro-cyclopenta[c]pyrrol-5-amine]	3%	119 nM	
Cc1ccc(F)cc1-c1cc(C#N)c(N[C@H]2C[C@@H]3CN(C[C@@H]4CC5CCC4O5)C[C@@H]3C2)nn1 (stereo partly drawn) [Example 147, 3-(((3aR,5s,6aS)-2-(((2S)-7-oxabicyclo[2.2.1]heptan-2-yl)methyl)octahydro-cyclopenta[c]pyrrol-5-yl)amino)-6-(5-fluoro-2-methylphenyl)pyridazine-4-carbonitrile]	5%	0.8 nM	
Cc1ccc(F)cc1-c1cc(C#N)c(N[C@H]2C[C@@H]3CN(C[C@@H]4CCOC4)C[C@@H]3C2)nn1 [Example 151, 6-(5-fluoro-2-methylphenyl)-3-(((3aR,5s,6aS)-2-(((S)-tetrahydrofuran-3-yl)methyl)octahydro-cyclopenta[c]pyrrol-5-yl)amino)pyridazine-4-carbonitrile]	7%	105 nM	

Next, values leading:

remaining activity at 30 µM (% ACh maximum at 30 μM)	IC50	Human M4 Emin (% ACh maximum at 30 μM)	Compound
3%	11.3 nM		[2H]C([2H])(C1CCOCC1)N1C[C@H]2C[C@H](Nc3nnc(-c4cc(F)ccc4C)cc3C(F)(F)F)C[C@H]2C1 [Example 17, (3aR,5s,6aS)-N-(6-(5-fluoro-2-methylphenyl)-4-(trifluoro-methyl)pyridazin-3-yl)-2-((tetrahydro-2H-pyran-4-yl)methyl-d2)octahydro-cyclopenta[c]pyrrol-5-amine]
2%	52.8 nM		Cc1ccc(C)c(-c2cc(C(F)(F)F)c(N[C@H]3C[C@@H]4CN(CC5CCOCC5)C[C@@H]4C3)nn2)c1 [Example 44, (3aR,5s,6aS)-N-(6-(2,5-dimethylphenyl)-4-(trifluoromethyl)pyridazin-3-yl)-2-((tetrahydro-2H-pyran-4-yl)methyl)octahydro-cyclopenta[c]pyrrol-5-amine]
3%	207 nM		Fc1ccc(F)c(-c2cc(C(F)(F)F)c(N[C@H]3C[C@@H]4CN(CC5CCOCC5)C[C@@H]4C3)nn2)c1 [Example 38, (3aR,5s,6aS)-N-(6-(2,5-difluorophenyl)-4-(trifluoromethyl)pyridazin-3-yl)-2-((tetrahydro-2H-pyran-4-yl)methyl)octahydro-cyclopenta[c]pyrrol-5-amine]
3%	29.8 nM		[2H]C([2H])(C1CCOCC1)N1C[C@H]2C[C@H](Nc3nnc(-c4ccc5nn(C)cc5c4)cc3C(F)(F)F)C[C@H]2C1 [Example 18, (3aR,5s,6aS)-N-(6-(2-methyl-2H-indazol-5-yl)-4-(trifluoro-methyl)pyridazin-3-yl)-2-((tetrahydro-2H-pyran-4-yl)methyl-d2)octahydro-cyclopenta[c]pyrrol-5-amine]
2%	54.7 nM		[2H]C([2H])(C1CCOCC1)N1C[C@H]2C[C@H](Nc3nnc(-c4cc(F)ccc4C(F)(F)F)cc3C(F)(F)F)C[C@H]2C1 [Example 99, (3aR,5s,6aS)-N-(6-(5-fluoro-2-(trifluoromethyl)phenyl)-4-(trifluoromethyl)pyridazin-3-yl)-2-((tetrahydro-2H-pyran-4-yl)methyl-d2)octahydro-cyclopenta[c]pyrrol-5-amine]
5%	52.3 nM		Cc1ccc(F)cc1-c1cc(C(F)(F)F)c(N[C@H]2C[C@@H]3CN(CC4COCC4C)C[C@@H]3C2)nn1 (stereo partly drawn) [Example 29, (3aR,5s,6aS)-N-(6-(5-fluoro-2-methylphenyl)-4-(trifluoromethyl)pyridazin-3-yl)-2-((4-methyltetrahydro-furan-3-yl)methyl)octahydro-cyclopenta[c]pyrrol-5-amine]
3%	67.7 nM		Cc1ccc(-c2cc(C(F)(F)F)c(N[C@H]3C[C@@H]4CN(CC5CCOCC5)C[C@@H]4C3)nn2)c(C)c1 [Example 59, (3aR,5s,6aS)-N-(6-(2,4-dimethylphenyl)-4-(trifluoromethyl)pyridazin-3-yl)-2-((tetrahydro-2H-pyran-4-yl)methyl)octahydro-cyclopenta[c]pyrrol-5-amine]
3%	13.6 nM		FC(F)(F)c1ccccc1-c1cc(C(F)(F)F)c(N[C@H]2C[C@@H]3CN(CC4CCOCC4)C[C@@H]3C2)nn1 [Example 41, (3aR,5s,6aS)-2-((tetrahydro-2H-pyran-4-yl)methyl)-N-(4-(trifluoromethyl)-6-(2-(trifluoromethyl)phenyl)pyridazin-3-yl)octahydro-cyclopenta[c]pyrrol-5-amine]
3%	290 nM		Fc1cc(F)c(F)c(-c2cc(C(F)(F)F)c(N[C@H]3C[C@@H]4CN(CC5CCOCC5)C[C@@H]4C3)nn2)c1 [Example 43, (3aR,5s,6aS)-2-((tetrahydro-2H-pyran-4-yl)methyl)-N-(4-(trifluoromethyl)-6-(2,3,5-trifluorophenyl)pyridazin-3-yl)octahydro-cyclopenta[c]pyrrol-5-amine]
4%	223 nM		N#Cc1ccc(F)c(-c2cc(C(F)(F)F)c(N[C@H]3C[C@@H]4CN(CC5CCOCC5)C[C@@H]4C3)nn2)c1 [Example 54, 4-fluoro-3-(6-(((3aR,5s,6aS)-2-((tetrahydro-2H-pyran-4-yl)methyl)octahydro-cyclopenta[c]pyrrol-5-yl)amino)-5-(trifluoro-methyl)pyridazin-3-yl)benzonitrile]
